The target in assay [1] is T1, CDK12 (nuclear staining in CAL-120 cells) (Homo sapiens, UniProt Q9NYV4).
T1 construct: endogenous in cells; host or cells: CAL-120 human breast cancer cells (DSMZ ACC 459)
In words: CDK12 nuclear protein level: immunofluorescence/high content analysis (CAL-120). It is filed as cell-based. The settings on record: for DC50: CAL-120 cells, 24 h, immunofluorescence, 50% reduction of nuclear CDK12 staining intensity, median, read-out: CDK12 degradation IF, DC50- [mol/l] (median); for (IC50 CDK12 high ATP) to (Degradation DC50 CDK12) ratio: ratio of IC50 CDK12 high ATP kinase assay to DC50 CDK12 degradation (IF, CAL-120). In outline: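 CAL-120 cells were treated with compound for 24 h at 37 °C, fixed with PFA and immunostained for CDK12. Nuclear CDK12 intensity was quantified by automated image analysis and normalized to DMSO and control. DC50 is the concentration giving 50% reduction of nuclear staining.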

For assay [2], the target named is CDK12/CycK (Homo sapiens, UniProt Q9NYV4). Nature of the assay: CDK12/CycK high ATP kinase assay (TR-FRET, 2 mM ATP). Particulars: 2 mM ATP (high ATP); median; read-out: CDK12/CyclinK, 2 mM ATP (high ATP), IC50-[mol/l] (median). It is filed as biochemical. In outline: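 His-tagged human CDK12/CycK (~0.75 nM) pre-incubated 15 min with compound, then 60 min at 22 °C with 2 mM ATP and 1 µM biotinylated peptide (HEPES pH 7.5, 20 mM MgCl2). EDTA stop; phospho-Ser62 antibody/Eu anti-rabbit and streptavidin-XL665 TR-FRET, 665/620 nm ratio normalised to give IC50.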
CDK12/CycK, sequence (Q9NYV4 with tags, fused parts or gaps): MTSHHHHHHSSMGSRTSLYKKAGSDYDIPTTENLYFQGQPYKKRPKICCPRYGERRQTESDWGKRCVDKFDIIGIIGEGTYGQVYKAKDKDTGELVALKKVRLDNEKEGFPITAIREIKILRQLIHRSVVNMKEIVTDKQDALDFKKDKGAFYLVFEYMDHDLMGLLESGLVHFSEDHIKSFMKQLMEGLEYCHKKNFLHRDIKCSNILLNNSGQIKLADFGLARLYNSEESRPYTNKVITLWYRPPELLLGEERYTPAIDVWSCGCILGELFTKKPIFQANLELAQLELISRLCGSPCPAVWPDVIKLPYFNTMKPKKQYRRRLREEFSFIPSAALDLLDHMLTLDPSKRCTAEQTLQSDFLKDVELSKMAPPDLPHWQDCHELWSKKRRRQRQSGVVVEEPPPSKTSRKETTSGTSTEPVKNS
CDK12/CycK, sequence (O75909 1-300 partner limits assumed): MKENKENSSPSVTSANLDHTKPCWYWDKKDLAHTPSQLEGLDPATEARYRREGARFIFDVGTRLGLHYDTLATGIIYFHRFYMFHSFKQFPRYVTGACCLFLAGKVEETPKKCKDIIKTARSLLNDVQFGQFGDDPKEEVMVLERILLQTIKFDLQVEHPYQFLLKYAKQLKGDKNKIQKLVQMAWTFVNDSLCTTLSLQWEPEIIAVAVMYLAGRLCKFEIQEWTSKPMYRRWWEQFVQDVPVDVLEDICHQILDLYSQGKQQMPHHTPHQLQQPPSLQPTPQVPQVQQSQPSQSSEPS

Assay [3] has as its system BRCA1 mRNA expression in MDA-MB-231 cells. In words: qRT-PCR assay: BRCA1 mRNA expression in MDA-MB-231. It is filed as cell-based, human. The settings on record: Homo sapiens, MDA-MB-231, Inhibition of BRCA1 mRNA expression in MDA-MB-231 cells; median; read-out: RTqPCR-MDA-MB-231, IC50, BRCA1 (median). Summed up:
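Read-out is RT-qPCR with expression normalised to the GAPDH housekeeping gene. Before RNA isolation, plated cells (200,000 per well, 24 h attachment) received test substances continuously over 24 h, and 600 ng of RNA served as cDNA template.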
(Real-time PCR tracks product formation cycle by cycle.)

T1 sequence (Q9NYV4 whole entry): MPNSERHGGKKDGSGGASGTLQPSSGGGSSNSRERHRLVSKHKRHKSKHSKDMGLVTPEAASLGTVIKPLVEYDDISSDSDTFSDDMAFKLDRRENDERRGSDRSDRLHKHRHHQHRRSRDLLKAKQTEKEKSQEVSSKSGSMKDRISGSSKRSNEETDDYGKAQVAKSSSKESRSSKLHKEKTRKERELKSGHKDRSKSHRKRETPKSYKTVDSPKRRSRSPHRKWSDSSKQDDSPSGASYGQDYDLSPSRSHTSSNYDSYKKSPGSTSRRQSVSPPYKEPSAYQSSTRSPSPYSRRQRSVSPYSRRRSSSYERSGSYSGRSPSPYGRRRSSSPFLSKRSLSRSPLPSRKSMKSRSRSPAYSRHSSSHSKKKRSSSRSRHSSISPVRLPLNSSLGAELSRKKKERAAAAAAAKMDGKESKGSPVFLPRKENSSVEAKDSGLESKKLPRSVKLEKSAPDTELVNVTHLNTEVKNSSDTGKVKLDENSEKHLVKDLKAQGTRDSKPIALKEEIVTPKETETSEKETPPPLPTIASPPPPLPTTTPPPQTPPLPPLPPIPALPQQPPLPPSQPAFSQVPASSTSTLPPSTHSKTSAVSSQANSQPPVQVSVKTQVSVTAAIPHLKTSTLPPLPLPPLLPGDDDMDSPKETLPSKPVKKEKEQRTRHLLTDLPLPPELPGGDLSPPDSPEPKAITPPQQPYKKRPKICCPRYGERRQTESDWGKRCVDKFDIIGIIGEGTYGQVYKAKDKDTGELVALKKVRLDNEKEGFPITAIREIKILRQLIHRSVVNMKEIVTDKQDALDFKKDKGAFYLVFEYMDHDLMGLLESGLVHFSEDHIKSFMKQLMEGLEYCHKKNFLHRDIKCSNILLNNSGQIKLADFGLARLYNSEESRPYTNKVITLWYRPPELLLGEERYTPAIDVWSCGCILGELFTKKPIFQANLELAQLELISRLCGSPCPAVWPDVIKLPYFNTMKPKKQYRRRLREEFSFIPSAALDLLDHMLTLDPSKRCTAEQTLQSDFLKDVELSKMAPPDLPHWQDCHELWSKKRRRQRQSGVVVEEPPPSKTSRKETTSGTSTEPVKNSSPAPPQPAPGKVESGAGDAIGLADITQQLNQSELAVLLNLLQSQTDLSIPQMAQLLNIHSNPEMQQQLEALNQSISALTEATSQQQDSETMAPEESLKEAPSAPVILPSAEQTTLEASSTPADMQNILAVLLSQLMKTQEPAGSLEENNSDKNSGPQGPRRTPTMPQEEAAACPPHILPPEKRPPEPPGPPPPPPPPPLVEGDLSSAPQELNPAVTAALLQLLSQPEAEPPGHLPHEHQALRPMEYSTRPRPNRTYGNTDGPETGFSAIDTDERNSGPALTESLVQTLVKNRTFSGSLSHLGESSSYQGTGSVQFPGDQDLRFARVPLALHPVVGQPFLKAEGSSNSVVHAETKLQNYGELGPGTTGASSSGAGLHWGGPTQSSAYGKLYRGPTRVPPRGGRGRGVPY
T1 sequence (O75909 whole entry partner): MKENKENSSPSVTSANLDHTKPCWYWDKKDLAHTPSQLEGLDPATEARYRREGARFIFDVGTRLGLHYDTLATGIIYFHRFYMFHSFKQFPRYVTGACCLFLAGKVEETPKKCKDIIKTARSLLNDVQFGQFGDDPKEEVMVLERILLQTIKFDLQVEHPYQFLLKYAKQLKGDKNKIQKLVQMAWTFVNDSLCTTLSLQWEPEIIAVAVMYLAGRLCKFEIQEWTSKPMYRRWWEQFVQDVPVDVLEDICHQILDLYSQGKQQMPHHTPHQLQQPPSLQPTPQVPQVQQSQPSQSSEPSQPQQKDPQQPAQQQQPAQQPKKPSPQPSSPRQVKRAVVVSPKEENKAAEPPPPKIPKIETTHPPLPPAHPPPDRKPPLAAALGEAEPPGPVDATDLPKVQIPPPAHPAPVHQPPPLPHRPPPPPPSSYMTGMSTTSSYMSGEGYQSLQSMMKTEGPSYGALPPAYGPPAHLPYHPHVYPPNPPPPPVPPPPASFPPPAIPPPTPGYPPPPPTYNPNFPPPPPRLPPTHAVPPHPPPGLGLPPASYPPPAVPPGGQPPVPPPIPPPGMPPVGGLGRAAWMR

As to `OCC1COCCN1c1nc(NCc2nc3ccccc3[nH]2)n2ncc(Br)c2n1` (centres unmarked) [Example 67, (4-{4-[(1H-benzimidazol-2-ylmethyl)amino]-8-bromopyrazolo[1,5-a][1,3,5]triazin-2-yl}morpholin-3-yl)methanol], the DC50 in assay [1] came out at 3.77 nM. Besides, the “(IC50 CDK12 high ATP) to (Degradation DC50 CDK12) ratio” value in assay [1] was 727. In addition, the IC50 in assay [2] came out at 2740 nM; in assay [3], 24.8 nM.
In the same order, the values of `COC(=O)C1CCN(c2nc(NCc3nc4ccccc4[nH]3)n3ncc(Br)c3n2)CC1` [Example 63, methyl 1-(4-{[(1H-benzimidazol-2-yl)methyl]amino}-8-bromopyrazolo[1,5-a][1,3,5]triazin-2-yl)piperidine-4-carboxylate] are 20.7 nM, 556, 11500 nM and 341 nM.
In the same order, the values of `OC[C@H]1CCCCN1c1nc(NCc2nnc(-c3ccccc3)[nH]2)n2ncc(Br)c2n1` [Example 71, [(2R)-1-(8-bromo-4-{[(5-phenyl-4H-1,2,4-triazol-3-yl)methyl]amino}pyrazolo[1,5-a][1,3,5]triazin-2-yl)piperidin-2-yl]methanol] are 4.34 nM, 998, 4330 nM and 21.1 nM.
On the same counts, the results for `c1ccc2[nH]c(CNc3nc(N4CCOCC4)nc4c(C5CC5)cnn34)nc2c1` [Example 92, N-[(1H-benzimidazol-2-yl)methyl]-8-cyclopropyl-2-(morpholin-4-yl)pyrazolo[1,5-a][1,3,5]triazin-4-amine] are 2.36 nM, 1378, 3250 nM and 13.3 nM.
For `Fc1ccccc1-c1cnc(CNc2nc(N3CCOCC3)nc3c(Br)cnn23)[nH]1` [Example 86, 8-bromo-N-{[5-(2-fluorophenyl)-1H-imidazol-2-yl]methyl}-2-(morpholin-4-yl)pyrazolo[1,5-a][1,3,5]triazin-4-amine], in assay [1], the DC50 came to 3.95 nM and the “(IC50 CDK12 high ATP) to (Degradation DC50 CDK12) ratio” value came out at 478. In assay [2], the IC50 amounted to 1890 nM. Also, in assay [3], the IC50 is 17.1 nM.
On the same counts, the results for `CC(C)c1cnn2c(NCc3nc4ccccc4[nH]3)nc(N3CCN(C)CC3)nc12` [Example 2, N-[(1H-benzimidazol-2-yl)methyl]-2-(4-methylpiperazin-1-yl)-8-(propan-2-yl)pyrazolo[1,5-a][1,3,5]triazin-4-amine] are 8.46 nM, more than 2365, more than 20000 nM and 20.8 nM.
On the same counts, the results for `COC1CCN(c2nc(NCc3nc4ccccc4[nH]3)n3ncc(Br)c3n2)CC1` [Example 62, N-[(1H-benzimidazol-2-yl)methyl]-8-bromo-2-(4-methoxypiperidin-1-yl)pyrazolo[1,5-a][1,3,5]triazin-4-amine] are 10 nM, 569, 5690 nM and 37.7 nM.
On the same counts, the results for `Brc1cnn2c(NCc3ncc(-c4ccccn4)[nH]3)nc(N3CCOCC3)nc12` [Example 90, 8-bromo-2-(morpholin-4-yl)-N-{[5-(pyridin-2-yl)-1H-imidazol-2-yl]methyl}pyrazolo[1,5-a][1,3,5]triazin-4-amine] are 4.05 nM, 1092, 4420 nM and 13.7 nM.
As to `OC[C@@H]1CCCCN1c1nc(NCc2nnc(-c3ccccc3)[nH]2)n2ncc(Br)c2n1` [Example 70, [(2S)-1-(8-bromo-4-{[(5-phenyl-4H-1,2,4-triazol-3-yl)methyl]amino}pyrazolo[1,5-a][1,3,5]triazin-2-yl)piperidin-2-yl]methanol], in assay [1], the DC50 amounted to 7.9 nM and the “(IC50 CDK12 high ATP) to (Degradation DC50 CDK12) ratio” value came out at 79. Moreover, the IC50 in assay [2] is 621 nM. The IC50 in assay [3] amounted to 55.9 nM.
In the same order, the values of `COc1ccccc1-c1cnc(CNc2nc(N3CCOCC3)nc3c(Br)cnn23)[nH]1` [Example 87, 8-bromo-N-{[5-(2-methoxyphenyl)-1H-imidazol-2-yl]methyl}-2-(morpholin-4-yl)pyrazolo[1,5-a][1,3,5]triazin-4-amine] are 2.16 nM, 1196, 2590 nM and 10.7 nM.
As for `Brc1cnn2c(NCc3nnc(-c4ccccc4)[nH]3)nc(N3CC4(COC4)C3)nc12` [Example 65, 8-bromo-2-(2-oxa-6-azaspiro[3.3]heptan-6-yl)-N-[(5-phenyl-4H-1,2,4-triazol-3-yl)methyl]pyrazolo[1,5-a][1,3,5]triazin-4-amine], in assay [1], the DC50 was found to be 4.15 nM and the “(IC50 CDK12 high ATP) to (Degradation DC50 CDK12) ratio” value was determined as 245. In addition, the IC50 in assay [2] was more than 5710 nM. Moreover, the IC50 in assay [3] came to 14.4 nM.
In the case of `Fc1ccc(-c2cnc(CNc3nc(N4CCOCC4)nc4c(Br)cnn34)[nH]2)cc1` [Example 66, 8-bromo-N-{[5-(4-fluorophenyl)-1H-imidazol-2-yl]methyl}-2-(morpholin-4-yl)pyrazolo[1,5-a][1,3,5]triazin-4-amine], in assay [1], the DC50 is 130 nM and the “(IC50 CDK12 high ATP) to (Degradation DC50 CDK12) ratio” value was more than 44. Further, the IC50 in assay [2] was 1020 nM. In addition, the IC50 in assay [3] was determined as 624 nM.
In the case of `Cc1ccccc1-c1cnc(CNc2nc(N3CCOCC3)nc3c(Br)cnn23)[nH]1` [Example 85, 8-bromo-N-{[5-(2-methylphenyl)-1H-imidazol-2-yl]methyl}-2-(morpholin-4-yl)pyrazolo[1,5-a][1,3,5]triazin-4-amine], the DC50 in assay [1] stood at 5.57 nM. Besides, the “(IC50 CDK12 high ATP) to (Degradation DC50 CDK12) ratio” value in assay [1] stood at 1137. Also, the IC50 in assay [2] came out at 6330 nM; in assay [3] it was 18.3 nM.
On the same counts, the results for `C[C@@H]1CN(c2nc(NCc3nc4ccccc4[nH]3)n3ncc(Br)c3n2)C[C@H](C)O1` [Example 73, N-[(1H-benzimidazol-2-yl)methyl]-8-bromo-2-[(2R,6S)-2,6-dimethylmorpholin-4-yl]pyrazolo[1,5-a][1,3,5]triazin-4-amine] are 5.15 nM, 129, 664 nM and 49.5 nM.
On to `Clc1ccc(-c2cnc(CNc3nc(N4CCOCC4)nc4c(Br)cnn34)[nH]2)cc1` [Example 72, 8-bromo-N-{[5-(4-chlorophenyl)-1H-imidazol-2-yl]methyl}-2-(morpholin-4-yl)pyrazolo[1,5-a][1,3,5]triazin-4-amine], for which the DC50 in assay [1] came to 10 nM. Further, the “(IC50 CDK12 high ATP) to (Degradation DC50 CDK12) ratio” value in assay [1] came to 55. Further, the IC50 in assay [2] was determined as 547 nM; in assay [3], 38.6 nM.
In the same order, the values of `CC(C)c1cnn2c(NCc3nc4ccccc4[nH]3)nc(N3CCOCC3)nc12` [Example 1, N-[(1H-benzimidazol-2-yl)methyl]-2-(morpholin-4-yl)-8-(propan-2-yl)pyrazolo[1,5-a][1,3,5]triazin-4-amine] are 11.1 nM, 537, 5970 nM and 16.6 nM.
On the same counts, the results for `CC1(C)CN(c2nc(NCc3nnc(-c4ccccc4)[nH]3)n3ncc(Br)c3n2)CCO1` [Example 68, 8-bromo-2-(2,2-dimethylmorpholin-4-yl)-N-[(5-phenyl-4H-1,2,4-triazol-3-yl)methyl]pyrazolo[1,5-a][1,3,5]triazin-4-amine] are 13.3 nM, 415, 5520 nM and 43.4 nM.
`Brc1cnn2c(NCc3ncc(-c4cccnc4)[nH]3)nc(N3CCOCC3)nc12` [Example 84, 8-bromo-2-(morpholin-4-yl)-N-{[5-(pyridin-3-yl)-1H-imidazol-2-yl]methyl}pyrazolo[1,5-a][1,3,5]triazin-4-amine]: in assay [1], the DC50 is 21.2 nM and the “(IC50 CDK12 high ATP) to (Degradation DC50 CDK12) ratio” value was determined as 98. Moreover, the IC50 in assay [2] worked out at 2090 nM. For the same compound, the IC50 in assay [3] came out at 118 nM.
On the same counts, the results for `COc1cccc(-c2cnc(CNc3nc(N4CCOCC4)nc4c(Br)cnn34)[nH]2)c1` [Example 80, 8-bromo-N-{[5-(3-methoxyphenyl)-1H-imidazol-2-yl]methyl}-2-(morpholin-4-yl)pyrazolo[1,5-a][1,3,5]triazin-4-amine] are 4.28 nM, 276, 1180 nM and 18.3 nM.
Consider `Brc1cnn2c(NCc3nnc(-c4ccccc4)[nH]3)nc(N3CCCC3)nc12` [Example 64, 8-bromo-N-[(5-phenyl-4H-1,2,4-triazol-3-yl)methyl]-2-(pyrrolidin-1-yl)pyrazolo[1,5-a][1,3,5]triazin-4-amine], for which, in assay [1], the DC50 is 12.5 nM and the “(IC50 CDK12 high ATP) to (Degradation DC50 CDK12) ratio” value was determined as 440. Besides, the IC50 in assay [2] came out at 5520 nM. In assay [3], the IC50 worked out at 27.9 nM.
